From PubChem BioAssay AID2060613 (Molecular Pharmacology Branch, DTP, NCI, 2025)
Where “and” joins values, the source holds several entries; their conditions need not be identical. Equal entries are not always repeated.

Test system: 233499-124-R-J3-PDC complex spheroid viability
Assay: Anticancer human tumor 233499-124-R-J3-PDC patient-derived colon adenocarcinoma cell line growth inhibition [CLK]
Conditions: for viability, T/C: stronger effect = lower value; active = viability on the fitted dose curve at most 10% of control; inactive = the rest
Summary of the method: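 Multi-cell-type spheroids combined patient-derived tumor cells with HUVEC endothelial cells and human mesenchymal stem cells. Paired agents were dosed in half-log steps down from about clinical Cmax, or from 10 microM where Cmax was unknown.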

[1] = curve of first compound, second compound 0.0316 µM
[2] = curve of first compound, second compound 0.1 µM
[3] = curve of first compound, second compound 0.316 µM
[4] = curve of first compound, second compound 1 µM
[5] = curve of first compound, second compound 3.16 µM
[6] = curve of first compound, second compound 10 µM
[7] = second compound 0.0316 µM, first compound 0.0316 µM
[8] = second compound 0.0316 µM, first compound 0.1 µM
[9] = second compound 0.0316 µM, first compound 0.316 µM
[10] = second compound 0.0316 µM, first compound 1 µM
[11] = second compound 0.0316 µM, first compound 3.16 µM
[12] = second compound 0.0316 µM, first compound 10 µM
[13] = second compound 0.1 µM, first compound 0.0316 µM
[14] = second compound 0.1 µM, first compound 0.1 µM
[15] = second compound 0.1 µM, first compound 0.316 µM
[16] = second compound 0.1 µM, first compound 1 µM
[17] = second compound 0.1 µM, first compound 3.16 µM
[18] = second compound 0.1 µM, first compound 10 µM
[19] = second compound 0.316 µM, first compound 0.0316 µM
[20] = second compound 0.316 µM, first compound 0.1 µM
[21] = second compound 0.316 µM, first compound 0.316 µM
[22] = second compound 0.316 µM, first compound 1 µM
[23] = second compound 0.316 µM, first compound 3.16 µM
[24] = second compound 0.316 µM, first compound 10 µM
[25] = second compound 1 µM, first compound 0.0316 µM
[26] = second compound 1 µM, first compound 0.1 µM
[27] = second compound 1 µM, first compound 0.316 µM
[28] = second compound 1 µM, first compound 1 µM
[29] = second compound 1 µM, first compound 3.16 µM
[30] = second compound 1 µM, first compound 10 µM
[31] = second compound 3.16 µM, first compound 0.0316 µM
[32] = second compound 3.16 µM, first compound 0.1 µM
[33] = second compound 3.16 µM, first compound 0.316 µM
[34] = second compound 3.16 µM, first compound 1 µM
[35] = second compound 3.16 µM, first compound 3.16 µM
[36] = second compound 3.16 µM, first compound 10 µM
[37] = second compound 10 µM, first compound 0.0316 µM
[38] = second compound 10 µM, first compound 0.1 µM
[39] = second compound 10 µM, first compound 0.316 µM
[40] = second compound 10 µM, first compound 1 µM
[41] = second compound 10 µM, first compound 3.16 µM
[42] = second compound 10 µM, first compound 10 µM
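Also: spheroids exposed to the drug combinations for seven days.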
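For viability, T/C in this document: percent viability relative to DMSO vehicle control wells taken as 100%.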

CC1(C)CCC(CN2CCN(c3ccc(C(=O)NS(=O)(=O)c4ccc(NCC5CCOCC5)c([N+](=O)[O-])c4)c(Oc4cnc5[nH]ccc5c4)c3)CC2)=C(c2ccc(Cl)cc2)C1 + CN1CCN(c2cc(C(=O)Nc3cc4cc(-c5cnn(C)c5)ccc4cn3)ccn2)CC1
< 0.0316 µM: IC50 [4] | IC50 [5] | IC50 [6]
6.37 µM: IC50 [2]
5.74 µM: IC50 [3]
active: viability, T/C [25] 0.68% | viability, T/C [26] 5.6% | viability, T/C [27] 5.7% | viability, T/C [28] 0.77% | viability, T/C [29] 0.88% | viability, T/C [30] 1.46% | viability, T/C [31] 0.9% | viability, T/C [32] 0.86% | viability, T/C [33] 1.07% | viability, T/C [34] 0.81% | viability, T/C [35] 1.05% | viability, T/C [36] 0.73% | viability, T/C [37] 0.67% | viability, T/C [38] 0.49% | viability, T/C [39] 0.43% | viability, T/C [40] 0.49% | viability, T/C [41] 0.56% | viability, T/C [42] 0.29%
inactive: viability, T/C [7] 93.1% | viability, T/C [8] 104% | viability, T/C [9] 102% | viability, T/C [10] 112% | viability, T/C [11] 113% | viability, T/C [12] 15.2% | viability, T/C [13] 96.4% | viability, T/C [14] 109% | viability, T/C [15] 100% | viability, T/C [16] 109% | viability, T/C [17] 112% | viability, T/C [18] 14.5% | viability, T/C [19] 86.1% | viability, T/C [20] 97% | viability, T/C [21] 89% | viability, T/C [22] 98.6% | viability, T/C [23] 93.8% | viability, T/C [24] 9.92%
6.39 µM: IC50 [1]

O=C(c1cc(Cc2n[nH]c(=O)c3ccccc23)ccc1F)N1CCN(C(=O)C2CC2)CC1
> 10 µM: IC50 (curve of compound)
inactive: viability, T/C (compound 0.0316 µM) 89.8% and 102% | viability, T/C (compound 0.1 µM) 91.5% and 89.6% | viability, T/C (compound 0.316 µM) 104% | viability, T/C (compound 1 µM) 105% and 92.8% | viability, T/C (compound 3.16 µM) 107% | viability, T/C (compound 10 µM) 86% and 115%

CC1COCCN1c1cc(C2(S(C)(=N)=O)CC2)nc(-c2ccnc3[nH]ccc23)n1 (stereo not given)
> 10 µM: IC50 (curve of compound)
inactive: viability, T/C (compound 0.0316 µM) 101% and 95.8% | viability, T/C (compound 0.1 µM) 101% and 91.5% | viability, T/C (compound 0.316 µM) 98.3% and 92.1% | viability, T/C (compound 1 µM) 101% and 74.8% | viability, T/C (compound 3.16 µM) 99.7% and 89.2% | viability, T/C (compound 10 µM) 81.4% and 53.9%

COC1C=CCC(C)C(C)S(=O)(=O)NC(=O)c2ccc3c(c2)N(CC2CCC21)CC1(CCCc2cc(Cl)ccc21)CO3 (stereo not given) + CN1CCN(c2cc(C(=O)Nc3cc4cc(-c5cnn(C)c5)ccc4cn3)ccn2)CC1
< 0.0316 µM: IC50 [4] | IC50 [5] | IC50 [6]
3.89 µM: IC50 [1]
active: viability, T/C [12] 7.46% | viability, T/C [18] 7.28% | viability, T/C [25] 0.62% | viability, T/C [26] 1.27% | viability, T/C [27] 0.44% | viability, T/C [28] 0.32% | viability, T/C [29] 0.78% | viability, T/C [30] 0.58% | viability, T/C [31] 0.45% | viability, T/C [32] 0.45% | viability, T/C [33] 0.5% | viability, T/C [34] 0.44% | viability, T/C [35] 0.43% | viability, T/C [36] 0.31% | viability, T/C [37] 0.31% | viability, T/C [38] 0.28% | viability, T/C [39] 0.31% | viability, T/C [40] 0.3% | viability, T/C [41] 0.29% | viability, T/C [42] 0.22%
inactive: viability, T/C [7] 93.9% | viability, T/C [8] 98% | viability, T/C [9] 94.6% | viability, T/C [10] 80.2% | viability, T/C [11] 60.4% | viability, T/C [13] 98.8% | viability, T/C [14] 98.6% | viability, T/C [15] 90.5% | viability, T/C [16] 79.7% | viability, T/C [17] 57.3% | viability, T/C [19] 91.5% | viability, T/C [20] 80% | viability, T/C [21] 46.5% | viability, T/C [22] 13.9% | viability, T/C [23] 30.5% | viability, T/C [24] 3.11%
0.27 µM: IC50 [3]
3.65 µM: IC50 [2]

CN1CCN(c2cc(C(=O)Nc3cc4cc(-c5cnn(C)c5)ccc4cn3)ccn2)CC1
529 nM [middle of 10 runs]: IC50 (compound alone, run of 07/31/2023)
active: viability, T/C (compound 1 µM) 1.16% [middle of 11 runs] | viability, T/C (compound 3.16 µM) 0.72% [middle of 10 runs] | viability, T/C (compound 10 µM) 0.46% [middle of 10 runs]

CC1COCCN1c1cc(C2(S(C)(=N)=O)CC2)nc(-c2ccnc3[nH]ccc23)n1 (stereo not given) + CNC(=O)c1ccc(Nc2nc(OC3CCCC3)c3c(-c4ccc5nc(C)oc5c4)c[nH]c3n2)c(OC)c1
5.52 µM: IC50 [4]
3.24 µM: IC50 [5]
4.41 µM: IC50 [6]
6.66 µM: IC50 [3]
8.71 µM: IC50 [2]
inactive: viability, T/C [7] 90% | viability, T/C [8] 103% | viability, T/C [9] 77.8% | viability, T/C [10] 87.5% | viability, T/C [11] 89.7% | viability, T/C [12] 46.2% | viability, T/C [13] 76.6% | viability, T/C [14] 76.9% | viability, T/C [15] 71.6% | viability, T/C [16] 70.1% | viability, T/C [17] 70.5% | viability, T/C [18] 47.2% | viability, T/C [19] 81.3% | viability, T/C [20] 88.1% | viability, T/C [21] 74% | viability, T/C [22] 76.6% | viability, T/C [23] 68% | viability, T/C [24] 40.3% | viability, T/C [25] 86.4% | viability, T/C [26] 59.8% | viability, T/C [27] 61.8% | viability, T/C [28] 74.1% | viability, T/C [29] 61.7% | viability, T/C [30] 36.8% | viability, T/C [31] 72.8% | viability, T/C [32] 77.6% | viability, T/C [33] 82.5% | viability, T/C [34] 70.3% | viability, T/C [35] 50.8% | viability, T/C [36] 30.5% | viability, T/C [37] 69.5% | viability, T/C [38] 69.3% | viability, T/C [39] 69.2% | viability, T/C [40] 63.8% | viability, T/C [41] 59.6% | viability, T/C [42] 29%
9.04 µM: IC50 [1]

CCN1CCN(Cc2ccc(Nc3ncc(F)c(-c4cc(F)c5nc(C)n(C(C)C)c5c4)n3)nc2)CC1
inactive: viability, T/C (compound 0.00316 µM) 100% and 102% | viability, T/C (compound 0.01 µM) 86.8% and 96.5% | viability, T/C (compound 0.0316 µM) 98.5% and 88% | viability, T/C (compound 0.1 µM) 93.8% and 104% | viability, T/C (compound 0.316 µM) 94.1% and 98.2% | viability, T/C (compound 1 µM) 102% and 64.3%
> 1 µM: IC50 (curve of compound)

CCN1CCN(Cc2ccc(Nc3ncc(F)c(-c4cc(F)c5nc(C)n(C(C)C)c5c4)n3)nc2)CC1 + CN1CCN(c2cc(C(=O)Nc3cc4cc(-c5cnn(C)c5)ccc4cn3)ccn2)CC1
> 1 µM: IC50 [1] | IC50 [2] | IC50 [3]
inactive: viability, T/C (second compound 0.0316 µM, first compound 0.00316 µM) 96.4% | viability, T/C (second compound 0.0316 µM, first compound 0.01 µM) 87.2% | viability, T/C [7] 81.5% | viability, T/C [8] 107% | viability, T/C [9] 97.9% | viability, T/C [10] 97.4% | viability, T/C (second compound 0.1 µM, first compound 0.00316 µM) 91.5% | viability, T/C (second compound 0.1 µM, first compound 0.01 µM) 114% | viability, T/C [13] 83.1% | viability, T/C [14] 90.5% | viability, T/C [15] 93.1% | viability, T/C [16] 93.1% | viability, T/C (second compound 0.316 µM, first compound 0.00316 µM) 92.7% | viability, T/C (second compound 0.316 µM, first compound 0.01 µM) 91.6% | viability, T/C [19] 96.2% | viability, T/C [20] 87.5% | viability, T/C [21] 86.9% | viability, T/C [22] 77.9%
< 0.00316 µM: IC50 [4] | IC50 [5] | IC50 [6]
active: viability, T/C (second compound 1 µM, first compound 0.00316 µM) 6.1% | viability, T/C (second compound 1 µM, first compound 0.01 µM) 0.82% | viability, T/C [25] 1.32% | viability, T/C [26] 4.68% | viability, T/C [27] 6.35% | viability, T/C [28] 2.16% | viability, T/C (second compound 3.16 µM, first compound 0.00316 µM) 0.75% | viability, T/C (second compound 3.16 µM, first compound 0.01 µM) 0.56% | viability, T/C [31] 0.71% | viability, T/C [32] 0.69% | viability, T/C [33] 1.11% | viability, T/C [34] 1.38% | viability, T/C (second compound 10 µM, first compound 0.00316 µM) 0.5% | viability, T/C (second compound 10 µM, first compound 0.01 µM) 0.56% | viability, T/C [37] 1.04% | viability, T/C [38] 0.52% | viability, T/C [39] 0.59% | viability, T/C [40] 0.61%

COc1c(OCCCN2CCOCC2)ccc2c3n(c(=NC(=O)c4cnc(N)nc4)nc12)CCN3
0.141 µM: IC50 (curve of compound)
active: viability, T/C (compound 1 µM) 3.62%
inactive: viability, T/C (compound 0.00316 µM) 83% | viability, T/C (compound 0.01 µM) 86% | viability, T/C (compound 0.0316 µM) 88.8% | viability, T/C (compound 0.1 µM) 49.3% | viability, T/C (compound 0.316 µM) 34.4%
